Measured values reported in patent publication US8421457B2, “Methods and systems for magnetically resonating both a subject and a substance administered to the subject” (Applied Magnetics, LLC, priority 2008, dated 2013).

Assays:
Parkinson's patient [1] = test: Onset of dyskinesias after Levodopa, with and without magnetic resonance (MR) treatment; format: in vivo, human; conditions: for % Improved: MR result vs baseline; for MR Result Onset of Dyskinesias: MR whole body immersion (7′)
Method: Subsequently, the selected magnetic resonance treatment regimen may be transmitted from the MR system server 160 to the client computer 120. The operator 138 then may carry out the treatment regimen upon the subject 150 according to the recommended treatment regimen. For example, the recommended magnetic resonance treatment regimen may specify a certain number and frequency of treatment events, wherein for each treatment an amount of a certain substance is administered to the body of the subject, and the subject is then resonated with electromagnetic energy of a certain flux density and certain frequency for a certain amount of time. Subsequent to each magnetic resonance treatment, all related data is updated locally at the client computer 120 and/or remotely at the MR system server 160.

Parkinson's patient [2] = test: Average off time of Levodopa, baseline versus MR treatment; format: in vivo, human; conditions: for % Improved: MR result vs baseline
Source text: In the example of Table 1, the MR analysis algorithm 166 has performed a query, for example, on the terms “Indication=Parkinson's” in combination with “Substance=Levodopa,” in order to produce one or more records of one or more subjects of one or more treatment events. Subsequently, the selected magnetic resonance treatment regimen may be transmitted from the MR system server 160 to the client computer 120. The operator 138 then may carry out the treatment regimen upon the subject 150 according to the recommended treatment regimen. For example, the recommended magnetic resonance treatment regimen may specify a certain number and frequency of treatment events, wherein for each treatment an amount of a certain substance is administered to the body of the subject, and the subject is then resonated with electromagnetic energy of a certain flux density and certain frequency for a certain amount of time. Subsequent to each magnetic resonance treatment, all related data is updated locally at the client computer 120 and/or remotely at the MR system server 160. Using the example of a subject 150 that has Parkinson's disease, a side effect of certain Parkinson's drugs may be involuntary movements called dyskinesias. Therefore, an example of results that may be logged in treatment data 137 may be observations as to the amount of time from beginning of treatment to the onset of dyskinesias, which is an indication as to the amount of time that it has taken for the substance 152 to enter the subject's body systems. Other observable effects of the MR treatment after the substance 152 that has been administered to the subject's body systems may be a reduction in off time of the drug, a reduction in tremors, and a reduction in joint stiffness.

osteoarthritis patients = conditions: person
Source text: In one example, a person suffered from back pain due to degenerative disk disease in their low back and sciatica. […] The subject was resonated approximately three times per week for more than one year.
In another example, a person experienced arthritis pain in a number of joints, including their hips, hands, and shoulders. The subject also suffered from sciatica in their hips and legs. The subject was taking Celebrex. The subject was resonated at least three times per week for one to two hours per session.
In a further example, a person experienced osteoarthritis pain and stiffness in their hands and finger joints. […] The subject was resonated twice for one-half hour per treatment. The subject was asked to rate their pain on a scale of zero (feels great) to ten (feels terrible) before and after treatment.
Alternatively, an amplitude of about 0.01 μG to about 0.46 μG, with a frequency of about 0.2799 Hz to about 12.8765 Hz may be used.

[3] = system: migraine and headache patients; test: Case reports: migraine and headache drugs combined with MR treatment; format: in vivo, human; conditions: for results on migraines / pain level before being resonated / reduction in pain level: person with migraines taking the drugs; for results on migraines: resonated ten times, 1 to 1.5 hours, over one month; for pain level before being resonated / pain level after treatment: scale of zero to ten; for reduction in pain level: two one-hour MR treatments three months apart; for pain level after treatment: same subject, after ten MR treatments over one month
Method: The subject was resonated ten times for 1 to 1.5 hours per treatment over a one-month period.
In another example, a person experienced pain associated with migraines. […] The subject received two one-hour treatments three months apart.
In a further example, a person experienced pain associated with severe headaches. The subject took Aspirin to treat the pain. The subject received one treatment for one hour.

fibromyalgia patients = test: Case reports: fibromyalgia, drugs combined with MR treatment; format: in vivo, human
Method: In one example, a person experienced fibromyalgia for a number of years. The subject also experienced insomnia, restless legs, and chronic fatigue. The subject took the drug Naproxen (Aleve). The subject received seven consecutive days of 1 to 1.5 hour treatments.
Their primary complaint was back pain. […] The subject received thirteen treatments within a two-month period. […] Approximately two months after completing their first series of treatment, they began a second regimen of ten treatments within a two-month period.
In a further example, a person at least fifty years old suffered from fibromyalgia for a number of years. […] The subject received daily (when possible) treatments for approximately one year.

[4] = system: patients with prostate problems, such as an enlarged prostate; test: Case report: enlarged prostate drugs combined with MR treatment; format: in vivo, human; conditions: for PSA count, last measurement before MR treatment: person, enlarged prostate for fifteen years, taking the drugs; for PSA count after eighteen months of treatment / prostate size after eighteen months of treatment: same subject, three MR treatments per week
Method: In one example, a person had been diagnosed with an enlarged prostate for fifteen years and their PSA count was rising (the last measurement was 2.35). The subject was taking the drugs Avodart and Flomax. The subject began a series of three treatments per week for […], and continuing on an ongoing basis.
In providing MR treatment to a subject with prostate problems, an amplitude of about 0.01 μG to about 0.4 μG, with a frequency of about 0.2799 Hz to about 11.197 Hz may be used.

[5] = same subject, thirteen MR treatments within a two-month period

N[C@@H](Cc1ccc(O)c(O)c1)C(=O)O [Levodopa]
time from consuming Levodopa to dyskinesias (Parkinson's patient [1]; Example 1, Parkinson's patient, no magnetic resonance): about 38 minutes | time from consuming Levodopa to dyskinesias (Parkinson's patient [1]; Example 1, same Parkinson's patient, substantially the same dosage, then receives magnetic resonance): about 22 minutes | absorption rate and efficacy of Levodopa on resonating the patient (Parkinson's patient [1]; Parkinson's patient resonated after consuming Levodopa): improved the absorption rate of Levodopa | % Improved (Parkinson's patient [1]; Record # 1265: onset of dyskinesias, Levodopa 25 mg): 42% | Baseline Onset of Dyskinesias (Parkinson's patient [1]; Record # 1265: subject A-84, Parkinson's, Levodopa 25 mg ingested): Onset of Dyskinesias 38 mins | MR Result Onset of Dyskinesias (Parkinson's patient [1]; Record # 1265: subject A-84, Levodopa 25 mg ingested, 0.0667 microgauss, 2.0 Hz, square, 60 mins): Onset of Dyskinesias 22 mins | % Improved (Parkinson's patient [1]; Record # 7508: onset of dyskinesias, Levodopa 50 mg): 37% | Baseline Onset of Dyskinesias (Parkinson's patient [1]; Record # 7508: subject W-65, Parkinson's, Levodopa 50 mg ingested): Onset of Dyskinesias 43 mins | MR Result Onset of Dyskinesias (Parkinson's patient [1]; Record # 7508: subject W-65, Levodopa 50 mg ingested, 0.0697 microgauss, 1.9 Hz, sinusoidal, 80 mins): Onset of Dyskinesias 27 mins | % Improved (Parkinson's patient [2]; Record # 4752: average off time, Levodopa 50 mg): 17% | Baseline Average off time (Parkinson's patient [2]; Record # 4752: subject W-65, Parkinson's, Levodopa 50 mg ingested): Average off time 6 hours | MR Result Average off time (Parkinson's patient [2]; Record # 4752: subject W-65, Levodopa 50 mg ingested, MR partial immersion (4′), 0.0697 microgauss, 1.9 Hz, sinusoidal, 90 mins): Average off time 5 hours | % Improved (Parkinson's patient [2]; Record # 5942: average off time, Levodopa 25 mg): 33% | Baseline Average off time (Parkinson's patient [2]; Record # 5942: subject AA-35, Parkinson's, Levodopa 25 mg ingested): Average off time 6 hours | MR Result Average off time (Parkinson's patient [2]; Record # 5942: subject AA-35, Levodopa 25 mg ingested, MR partial immersion (22″), 0.0717 microgauss, 1.8 Hz, triangle, 70 mins): Average off time 4 hours

Cc1ccc(-c2cc(C(F)(F)F)nn2-c2ccc(S(N)(=O)=O)cc2)cc1 [Celebrex]
results of treatment (osteoarthritis patients; arthritis pain and sciatica, taking Celebrex, resonated at least three times per week, one to two hours per session): a reduction in dosage and frequency of taking Celebrex, decreased pain, improved mobility, and improved sleep

CNS(=O)(=O)Cc1ccc2[nH]cc(CCN(C)C)c2c1 [Immitrex]
results on migraines [3]: decreased frequency and duration of migraines | pain level before being resonated [3]: nine | reduction in pain level [3]: 50% | pain level after treatment [3]: two

O=C1CN=C(c2ccccc2Cl)c2cc([N+](=O)[O-])ccc2N1 [Clonazepam]
pain level after treatment, first series (fibromyalgia patients; [5]): 0.5

COc1ccc2cc([C@H](C)C(=O)O)ccc2c1 [Naproxen]
results of continuing treatment (osteoarthritis patients; back pain (degenerative disk disease, sciatica), taking the drugs, resonated approx. three times per week for more than one year): significantly less pain, an improved range of motion, and improved sleep | pain level before treatment (fibromyalgia patients; Person, fibromyalgia, took Naproxen (Aleve)): six | initial pain levels before treatments (fibromyalgia patients; person, fibromyalgia, taking Naproxen (Aleve), depending on the area of the body): three to seven | pain after treatment (fibromyalgia patients; same subject, daily (when possible) MR treatments for approximately one year): total elimination of pain | pain level after completing treatment (fibromyalgia patients; same subject, seven consecutive days of 1 to 1.5 hour MR treatments): zero to one

CCOc1ccccc1OCCN[C@H](C)Cc1ccc(OC)c(S(N)(=O)=O)c1 [Flomax]
PSA count, last measurement before MR treatment [4]: 2.35 | PSA count after eighteen months of treatment [4]: 0.95 | prostate size after eighteen months of treatment [4]: no longer enlarged

CCC(=O)O[C@]1(C(=O)SCF)[C@H](C)C[C@H]2[C@@H]3C[C@H](F)C4=CC(=O)C=C[C@]4(C)[C@@]3(F)[C@@H](O)C[C@@]21C [Flonase]
pain level after treatment, first series (fibromyalgia patients; [5]): 0.5

CCOC(=O)N1CCC(=C2c3ccc(Cl)cc3CCc3cccnc32)CC1 [Claritin]
pain level after treatment, first series (fibromyalgia patients; [5]): 0.5

COc1ccccc1OCC(O)COC(N)=O (stereo not drawn) [Robaxin]
pain level after treatment, first series (fibromyalgia patients; [5]): 0.5

CCN(CC)CC(=O)Nc1c(C)cccc1C [lidoderm]
pain level after treatment, first series (fibromyalgia patients; [5]): 0.5

NS(=O)(=O)c1cc2c(cc1Cl)NCNS2(=O)=O [HCTZ]
pre-treatment pain level, first series (fibromyalgia patients; person, fibromyalgia, back pain, on the listed drugs, before MR): 4 | initial pain level, second series (fibromyalgia patients; same subject, approx. two months after first series, before second regimen): 4 | pain level after treatment, first series (fibromyalgia patients; [5]): 0.5

CN1CC[C@]23c4c5ccc(O)c4O[C@H]2[C@@H](O)C=C[C@H]3[C@H]1C5 [Morphine]
pain level after treatment, first series (fibromyalgia patients; in vivo): 0.5

CC(C)C[C@H](CN)CC(=O)O [Lyrica]
pain level after treatment, first series (fibromyalgia patients; in vivo): 0.5

C[C@]12C=CC(=O)N[C@@H]1CC[C@@H]1[C@@H]2CC[C@]2(C)[C@@H](C(=O)Nc3cc(C(F)(F)F)ccc3C(F)(F)F)CC[C@@H]12 [Avodart]
PSA count, last measurement before MR treatment [4]: 2.35 | PSA count after eighteen months of treatment [4]: 0.95 | prostate size after eighteen months of treatment [4]: no longer enlarged

CC1(C)O[C@@H]2[C@@H](CO[C@@]3(COS(N)(=O)=O)OC(C)(C)O[C@@H]23)O1 [Topomax]
results on migraines [3]: decreased frequency and duration of migraines | pain level before being resonated [3]: nine | reduction in pain level [3]: 50% | pain level after treatment [3]: two
